According to patent US10744128B2, “6-(5-membered heteroaryl)isoquinolin-3-yl-(5-membered heteroaryl) carboxamides and preparation and use thereof” (Samumed, LLC, priority 2017, dated 2020):
Where two headings read alike, the source gives them in different places.

Assays:
[1] = system: Tau phosphorylation at Ser396 (pSer396); test: Tau phosphorylation (pSer396) assay in SH-SY5Y cells; type: cell-based, human
Method: Two days before treatment, cells were seeded onto 96 well plates at 5×10^4 cells/well.
The above synthesized compounds were screened using the cell assay procedure to assess decrease Tau phosphorylation at Ser396 (pSer396) described below.
Cells were lysed with RIPA buffer complemented with phosphatase and protease inhibitors then lysates were spun down at 12,000 g for 10 min to remove any cellular debris.

[2] = molecular target: recombinant DYRK1A kinase (Homo sapiens (Human), UniProt Q13627); test: DYRK1A kinase assay (Ser/Thr 18 peptide Z-lyte, FRET); conditions: DYRK1A kinase, 30 μM ATP, one hour; method calls values IC50
Method: Each compound was dissolved in DMSO as a 10 mM stock and used to prepare compound source plates.
This is a non-radioactive assay using fluorescence resonance energy transfer (FRET) between coumarin and fluorescein to detect kinase activity which is represented as a ratio of coumarin emission/fluorescein emission.
The mixture was allowed to incubate with the representative compounds for one hour at room temperature. All reactions were performed in duplicate. Unphosphorylated (“0% Control”) and phosphorylated (“100% control”) forms of Ser/Thr 18 served as control reactions. Additionally, an 11-point dose-response curve of Staurosporine (1 uM top) was run to serve as a positive compound control.
After incubation, Development Reagent A was diluted in Development Buffer then added to the reaction and allowed to further incubate for one hour at room temperature.
Dose-response curves were generated and inhibitory concentration (IC50) values were calculated using non-linear regression curve fit in the Dotmatics' Studies Software (Bishops Stortford, UK).

[3] = system: IL-6; test: IL-6 inhibition in LPS-stimulated human peripheral blood mononuclear cells (HTRF); type: cell-based; conditions: for EC50: huPBMCs, LPS 50 ng/mL, 22 hours, IL-6 HTRF; for inhibition at 10 µM: read-out: percent inhibition at 10 μM
Method in brief: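 Fresh human PBMCs at 1×10e6 cells/mL in 1% FBS-RPMI were pretreated with compound for 2 h, then stimulated with 50 ng/mL E. coli 0111:B4 LPS for a further 22 h at 37 °C. IL-6 was measured by HTRF (665/620 nm ratio). Values were normalized to DMSO and fitted 4-parameter for EC50.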

[4] = system: SW480 colon carcinoma cells; test: Cell viability assay (CellTiter-Glo) in SW480 cells; type: cell-based, human; conditions: four days
[5] = system: Wnt-responsive promoter (Sp5-Luc reporter) in SW480 colon carcinoma cells; test: Sp5-Luc reporter gene screening assay for Wnt activity in SW480 cells; type: cell-based, human; conditions: 36 to 48 hours, luminescence
Method in brief: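 SW480 cells stably carrying a luciferase reporter under an Sp5 promoter with eight TCF/LEF sites, plated at 4,000 cells/well in DMEM with 1% FBS and incubated 36 to 48 hours at 37° C. Luminescence normalized to DMSO-only cells; EC50 fitted by four-parameter nonlinear regression.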

[6] = molecular target: recombinant GSK3β kinase (Homo sapiens (Human), UniProt P49841); test: GSK3β kinase assay (Ser/Thr 09 peptide Z-lyte, FRET); type: biochemical; conditions: GSK3β kinase, 46 μM ATP, one hour; method calls values IC50
Chain of recombinant GSK3β kinase (P49841 whole entry): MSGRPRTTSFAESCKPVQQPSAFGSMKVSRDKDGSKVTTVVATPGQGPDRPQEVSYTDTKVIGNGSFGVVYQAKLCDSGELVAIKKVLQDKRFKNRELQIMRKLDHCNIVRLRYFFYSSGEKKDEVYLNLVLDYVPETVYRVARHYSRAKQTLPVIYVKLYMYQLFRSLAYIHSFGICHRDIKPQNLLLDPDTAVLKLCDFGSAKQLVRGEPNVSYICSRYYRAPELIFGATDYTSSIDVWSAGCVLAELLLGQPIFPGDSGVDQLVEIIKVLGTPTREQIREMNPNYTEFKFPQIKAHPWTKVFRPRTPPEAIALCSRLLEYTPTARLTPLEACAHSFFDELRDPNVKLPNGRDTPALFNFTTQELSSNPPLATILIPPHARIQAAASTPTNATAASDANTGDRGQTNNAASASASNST

[7] = system: primary human fibroblasts derived from IPF patients (LL29 cells), α-smooth muscle actin; test: Inhibition of fibrotic process: αSMA in TGF-β1 treated LL29 fibroblasts; type: cell-based; conditions: for EC50: LL29 cells, TGF-β1 20 ng/mL, 4 days, % cells positive for αSMA
Method in brief: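 LL29 fibroblasts from IPF patients, in F12 medium with 1% FBS, treated with TGF-β1 plus compound; TGF-β1 with DMSO as positive control, DMSO alone as negative control. After 4 days' incubation, SYTOX green nucleic acid stain added at 1 μM final, 30 min at room temperature.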

[8] = Homo sapiens, SH-SY5Y cells, overnight (16-18 h), pSer396 Tau ELISA, read-out: EC50

Row | Compound | EC50 [1, 8] [µM] | EC50 [2] [µM] | EC50 ([3]; Homo sapiens, PBMC) [µM] | EC50 ([4]; Homo sapiens, 96 h) [µM] | EC50 ([5]; Homo sapiens) [µM] | EC50 [6] [µM] | EC50 ([7]; Homo sapiens, Fibroblast, 96 h) [µM] | inhibition at 10 µM ([3]; Homo sapiens, PBMC) [%] | inhibition at 10 µM ([7]; Homo sapiens, Fibroblast, read-out: percent inhibition at 10 μM) [%] | EC50 ([1]; Homo sapiens, SH-SY5Y) [µM] | EC50 ([1]; SH-SY5Y cells, overnight (16-18 h), pSer396 Tau ELISA, read-out: EC50) [µM] | EC50 [3] [µM] | EC50 [4] [µM] | EC50 [5] [µM] | EC50 [7] [µM]
1 | Cn1cc(-c2ccc3cnc(NC(=O)c4cnn(C5CCNCC5)c4)cc3c2)cn1 [Compound 2, N-(6-(1-methyl-1H-pyrazol-4-yl)isoquinolin-3-yl)-1-(piperidin-4-yl)-1H-pyrazole-4-carboxamide] | 0.099 | 0.002 | 0.114 | 0.038 | 0.027 | 1.04 | 0.093 | – | – | – | – | – | – | – | –
2 | CC(C)N1CCC(n2cc(C(=O)Nc3cc4cc(-c5cnn(C)c5)ccc4cn3)cn2)CC1 [Compound 8, 1-(1-isopropylpiperidin-4-yl)-N-(6-(1-methyl-1H-pyrazol-4-yl)isoquinolin-3-yl)-1H-pyrazole-4-carboxamide] | 0.027 | 0.001 | 0.504 | 0.059 | 0.011 | 0.78 | 0.072 | – | – | – | – | – | – | – | –
3 | CC(C)OC(=O)N1CCC(n2cc(C(=O)Nc3cc4cc(-c5cnn(C)c5)ccc4cn3)cn2)CC1 [Compound 10, isopropyl 4-(4-((6-(1-methyl-1H-pyrazol-4-yl)isoquinolin-3-yl)carbamoyl)-1H-pyrazol-1-yl)piperidine-1-carboxylate] | 0.064 | 0.003 | 0.277 | 0.105 | 0.055 | 4.17 | 0.062 | – | – | – | – | – | – | – | –
4 | Cn1cc(-c2ccc3cnc(NC(=O)c4csc(C5CCN(CCF)CC5)n4)cc3c2)cn1 [Compound 27, 2-(1-(2-Fluoroethyl)piperidin-4-yl)-N-(6-(1-methyl-1H-pyrazol-4-yl)isoquinolin-3-yl)thiazole-4-carboxamide] | > 10 | 0.014 | > 10 | 3.65 | 0.3 | 3.6 | 2.52 | 34.5 | – | – | – | – | – | – | –
5 | Cc1ncc(C(=O)Nc2cc3cc(-c4cnn(C5CCN(C)CC5)c4)ccc3cn2)s1 [Compound 28, 2-Methyl-N-(6-(1-(1-methylpiperidin-4-yl)-1H-pyrazol-4-yl)isoquinolin-3-yl)thiazole-5-carboxamide] | 2.1 | 0.024 | 9.97 | 0.34 | 1.17 | > 10 | 0.381 | – | – | – | – | – | – | – | –
6 | Cc1ncc(-c2ccc3cnc(NC(=O)c4cnn(C(C)C)c4)cc3c2)n1C [Compound 61, N-(6-(1,2-Dimethyl-1H-imidazol-5-yl)isoquinolin-3-yl)-1-isopropyl-1H-pyrazole-4-carboxamide] | – | 0.005 | 0.566 | 0.111 | 0.063 | 6.79 | 0.318 | – | – | – | – | – | – | – | –
7 | Cc1ncc(C(=O)Nc2cc3cc(-c4cnc(C)n4C)ccc3cn2)s1 [Compound 62, N-(6-(1,2-Dimethyl-1H-imidazol-5-yl)isoquinolin-3-yl)-2-methylthiazole-5-carboxamide] | 0.193 | 0.002 | 2.76 | 0.023 | 0.11 | 0.45 | 0.644 | – | – | – | – | – | – | – | –
8 | Cc1ncc(-c2ccc3cnc(NC(=O)c4cnn(C5CCN(C)CC5)c4)cc3c2)o1 [Compound 63, N-(6-(2-Methyloxazol-5-yl)isoquinolin-3-yl)-1-(1-methylpiperidin-4-yl)-1H-pyrazole-4-carboxamide] | – | 0.002 | 0.298 | 0.058 | 0.034 | 0.611 | 0.113 | – | – | – | – | – | – | – | –
9 | Cc1ncc(-c2ccc3cnc(NC(=O)Cn4ccnc4)cc3c2)o1 [Compound 64, 2-(1H-imidazol-1-yl)-N-(6-(2-methyloxazol-5-yl)isoquinolin-3-yl)acetamide] | 0.085 | 0.004 | 0.427 | 0.836 | 1.15 | 0.009 | 0.187 | – | – | – | – | – | – | – | –
10 | Cc1nnc(-c2ccc3cnc(NC(=O)c4cnn(C5CCN(C)CC5)c4)cc3c2)s1 [Compound 65, N-(6-(5-Methyl-1,3,4-thiadiazol-2-yl)isoquinolin-3-yl)-1-(1-methylpiperidin-4-yl)-1H-pyrazole-4-carboxamide] | – | 0.006 | 0.361 | 0.048 | 0.03 | 0.628 | 0.219 | – | – | – | – | – | – | – | –
11 | Cc1nnc(-c2ccc3cnc(NC(=O)c4cnn(C5CCN(C(C)C)CC5)c4)cc3c2)s1 [Compound 66, 1-(1-Isopropylpiperidin-4-yl)-N-(6-(5-methyl-1,3,4-thiadiazol-2-yl)isoquinolin-3-yl)-1H-pyrazole-4-carboxamide] | – | 0.004 | 0.893 | 0.046 | 0.034 | 0.39 | 0.169 | – | – | – | – | – | – | – | –
12 | Cc1nnc(-c2ccc3cnc(NC(=O)c4cn(C5CCN(C)CC5)nn4)cc3c2)s1 [Compound 67, N-(6-(5-Methyl-1,3,4-thiadiazol-2-yl)isoquinolin-3-yl)-1-(1-methylpiperidin-4-yl)-1H-1,2,3-triazole-4-carboxamide] | – | 0.031 | > 10 | 0.899 | 0.463 | 2.34 | 4.36 | 8.3 | – | – | – | – | – | – | –
13 | Cc1nnc(-c2ccc3cnc(NC(=O)c4coc(C5CCNCC5)n4)cc3c2)s1 [Compound 68, N-(6-(5-Methyl-1,3,4-thiadiazol-2-yl)isoquinolin-3-yl)-2-(piperidin-4-yl) oxazole-4-carboxamide] | – | 0.074 | 2.64 | 0.414 | 0.122 | 0.666 | 2.58 | – | – | – | – | – | – | – | –
14 | Cc1nnc(-c2ccc3cnc(NC(=O)c4coc(C5CCN(C)CC5)n4)cc3c2)s1 [Compound 69, N-(6-(5-Methyl-1,3,4-thiadiazol-2-yl)isoquinolin-3-yl)-2-(1-methylpiperidin-4-yl)oxazole-4-carboxamide] | – | 0.527 | > 10 | 1.29 | 2.15 | 6.77 | > 10 | 2.3 | 43.9 | – | – | – | – | – | –
15 | CC(C)n1cc(C(=O)Nc2cc3cc(-c4cncn4C(C)C)ccc3cn2)cn1 [Compound 70, 1-Isopropyl-N-(6-(1-isopropyl-1H-imidazol-5-yl)isoquinolin-3-yl)-1H-pyrazole-4-carboxamide] | – | 0.009 | 1.6 | 0.132 | 0.115 | 7.08 | 0.249 | – | – | – | – | – | – | – | –
16 | COc1ccc2c(c1)[nH]c1c(C)nccc12 [Harmine, reference compound] | – | – | – | – | – | – | – | – | – | > 10 | – | – | – | – | –
17 | CCN1/C(=C/C(C)=O)Sc2ccc(O)cc21 [Indy, reference compound] | – | – | – | – | – | – | – | – | – | – | > 10 | – | – | – | –
18 | N-(6-(1-(Methyl-d3)-1H-pyrazol-4-yl)isoquinolin-3-yl)-2-(1-methylpiperidin-4-yl)oxazole-4-carboxamide [Compound 17] | – | 0.016 | – | – | – | 2.93 | – | – | – | – | – | 6.2 | 0.128 | 0.111 | 0.173
19 | N-(6-(1-Methyl-1H-pyrazol-4-yl)isoquinolin-3-yl)-2-(4-methylpiperazin-1-yl)oxazole-5-carboxamide [Compound 15] | – | 0.008 | – | – | – | 9.52 | – | – | – | – | – | 0.754 | 0.146 | 0.103 | 0.279
